Consider four compounds from patent US20080119445A1, “METHODS OF FEMALE SEXUAL ENHANCEMENT” (priority 2004, published 2008).

Counter-ions that a name gives are not always drawn.

Data set [1] concerns women. Nature of the data set: unpublished clinical study of DHEA cream (transdermal) or pellets (subcutaneous) in women. The format is in vivo, human. The text has this: A third embodiment of the present invention comprises a new use of a well-established steroid hormone. The invention includes both the topical application of the hormone in cream form and the subcutaneous implantation of the hormone in pellet form for the purpose of female sexual enhancement.
The hormone is dehydroepiandrosterone (DHEA) and the carrying agent for its topical use is a proprietary compound, Q-base cream. Q-base cream is available to compound pharmacies all over the United States and consists of the following formulation: • purified water, cyclomethicone, octyl stearate, arlacel 165 (PEG-100 stearate/glyceryl stearate), sorbitol, green tea extract (organic), stearyl alcohol, cyclopentasiloxane and PEG/PPG-18/18 dimethicone, gingko extract (organic), ginseng extract (organic), tocotrienols, vitamin E acetate, wheat germ oil, edetate disodium, xanthan gum, vitamin A palmitate, coenzyme Q10, methylchloroisothiazolinone/methylisothiazolin one.
Alternatively, the carrying agent for the DHEA may comprise H-base cream. The formula for H-base cream is as follows: • water, glycerin, canola oil, stearic acid, cetyl alcohol, PEG-100 stearate, glyceryl stearate, dimethicone, magnesium aluminum silicate, propylene glycol, triethanolamine, polysorbate 60, xanthan gum, bitter almond kernel oil, aloe vera, grape seed extract, wheat germ oil, vitamin E acetate, vitamin A palmitate, Vitamin C palmitate, tetrasodium EDTA, potassium sorbate, diazolidinyl urea. H base cream is a proprietary product produced by Professional Compounds Centers of America and licensed by it.
The method of application of either the Q-base cream/DHEA mixture or the H-base cream/DHEA mixture in females is local application to the erectile tissue of the nipples and glans clitoris. The ratio of ingredients comprising the Q-base cream/DHEA mixture is between about 25 mg and about 50 mg of DHEA to about 1 cc of Q-base cream. The ratio of ingredients comprising the H-base cream/DHEA mixture is substantially the same. The resulting mixture is applied one time per day but not related to intercourse. Implantation of subcutaneous DHEA pellets is at the strength of about 25 mg of DHEA per pellet at intervals of between about 2 months and about 3 months. […] Normal levels are considered to be 50-100 picograms per milliliter.
In an unpublished clinical study of the third embodiment of the invention over the past three years patient acceptance and satisfaction has been clear-cut and in excess of 95%. The response is dependent on the patient having normal blood levels of estradiol and testosterone as well. A normal level of DHEA is about 50 to about 100 picograms per milliliter. A normal level of estradiol is about 50 to about 100 picograms per milliliter and a normal level of testosterone is about 200 to about 540 picograms per milliliter. Normal ranges for all these levels can vary from laboratory to laboratory.

Data set [2] concerns women. As to conditions: headaches, facial flushing, nasal congestion, indigestion, bluish tinge to vision, blindness; cited from earlier work.
Data set [3] deals with women. Particulars: widely used for years; cited from earlier work.
Data set [4] concerns women. Nature of the data set: administration of vardenafil hydrochloride or tadalafil to women prior to sexual activity. The format is in vivo, human. The procedure:
More particularly, the initial step in the process comprising the first embodiment of the invention comprises identifying a woman desiring sexual enhancement. […] Thereafter, the woman's blood is tested to determine the levels of estradiol and testosterone. If the woman's blood contains an estradiol level within a first predetermined range and a testosterone level within a second predetermined range, the process of the present invention continues. If not, the woman is treated utilizing conventional techniques to bring the level of estradiol in her blood to within the first predetermined range and/or to bring the level of testosterone in her blood to within the second predetermined range. […]
After the required levels of estradiol and testosterone in the woman's blood have either been confirmed or established, a drug selected from the group consisting of vardenafil hydrochloride and tadalafil is administered to the woman prior to sexual activity. […] It has been determined that the selected drug should be administered at least 15-20 minutes prior to the beginning of sexual activity. The optimum time interval between administration of the selected drug and the beginning of sexual activity may vary depending on the particular circumstances and is best determined by the woman through experimentation. […]

Data set [5] relates to women. Particulars: normal estradiol and testosterone levels not established before the drug was used; cited from earlier work.

Consider `C[C@]12CC[C@H](O)CC1=CC[C@@H]1[C@@H]2CC[C@]2(C)C(=O)CC[C@@H]12` [DHEA, dehydroepiandrosterone], for which, in the data set on women [1] (cream once per day versus about 25 mg pellet every 2 to 3 months), the “blood levels, cream versus subcutaneous pellets” value is “Identical blood levels are achieved with both methods of application”. Also, the “patient acceptance and satisfaction” value in the data set on women [1] (third embodiment, over the past three years, normal blood levels of estradiol and testosterone) is greater than 95%. Besides, the “female sexual pleasure and satisfaction including sexual arousal and achievement of orgasm” value in the data set on women [1] (transdermal or subcutaneous, women with normal estradiol and testosterone) is on record as “enhanced”. For the same compound, in the data set with women [1] (women), the “blood level above which excess androgen complications occur (male pattern hair loss, excess facial hair growth, acne)” value is given as “exceed 100 picograms per milliliter” and the “safety profile of administration” value was “extraordinary”.
Consider `CCCc1nn(C)c2c(=O)[nH]c(-c3cc(S(=O)(=O)N4CCN(C)CC4)ccc3OCC)nc12` [VIAGRA, sildenafil citrate], for which the “side effects observed in women using the drug for sexual enhancement” value with women [2] is listed as “unacceptable side effects”.
Turning to `CN1CC(=O)N2[C@H](c3ccc4c(c3)OCO4)c3[nH]c4ccccc4c3C[C@@H]2C1=O` [tadalafil], the safety profile entry in the data set on women [3] is “remarkable safety profiles”.
As for `CCCc1nc(C)c2c(=O)[nH]c(-c3cc(S(=O)(=O)N4CCN(CC)CC4)ccc3OCC)nn12` [vardenafil hydrochloride], the safety profile entry with women [3] was “remarkable safety profiles”. Besides, in the data set with women [4] (drug given prior to sexual activity), the “enhancement of sexual arousal and sexual satisfaction in females” value was “significant enhancement”. For the same compound, in the data set on women [4] (experiences over the past 2 years, lower dosage, used correctly (normal estradiol and testosterone)), the “efficacy in women compared with men” value is “even more effective (lower dosage) in women than in men”. In the data set with women [5], the efficacy in women entry is “ineffective in women”.
